Among the data in patent US11267811B2, “Small molecule inhibitors of galectin-3” (BRISTOL-MYERS SQUIBB COMPANY, priority 2017, dated 2022) are IC50 values, retold here.

pIC50: −log10 of the molar value.

One assay deals with His-tagged recombinant human Gal-3 (hGal-3) (Homo sapiens (Human), UniProt P17931). In words: Gal-3 HTRF assay (His-tagged hGal-3 binding to B-ASF).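 Further: compounds preincubated 30 min with hGal-3, then 1 h with B-ASF, detection via terbium anti-His antibody and streptavidin d2. Control with B-ASF counts as full signal, omitting B-ASF as background.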 The conditions noted are these: HTRF, hGal-3 15 nM, B-ASF 15 nM; read-out: hGal-3 IC50. On the technique in general: Time-resolved FRET reads energy transfer from a long-lived donor to a nearby acceptor.
Sequence of His-tagged recombinant human Gal-3 (hGal-3) (P17931 whole entry): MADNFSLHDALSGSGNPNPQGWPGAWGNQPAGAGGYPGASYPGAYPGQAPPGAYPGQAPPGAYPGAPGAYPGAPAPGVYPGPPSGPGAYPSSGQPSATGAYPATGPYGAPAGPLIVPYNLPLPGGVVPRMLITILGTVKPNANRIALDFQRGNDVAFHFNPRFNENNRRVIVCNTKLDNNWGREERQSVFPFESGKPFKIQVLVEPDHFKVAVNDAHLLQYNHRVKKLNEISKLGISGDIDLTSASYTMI
In general, pIC50 refers to the negative decadic logarithm of the IC50, by convention in mol/L. In the case of `OC[C@H]1O[C@@H](c2nncn2-c2ccc(Cl)cc2)[C@H](O)[C@@H](n2cc(-c3cc(F)c(F)c(F)c3)nn2)[C@H]1O` [Example 75], the pIC50 was 6.48. Still for that read-out and setting: the same measure for `Cc1nc2ccc(-n3ncnc3[C@@H]3O[C@H](CO)[C@H](O)[C@H](n4cc(-c5cc(F)c(Cl)cc5F)nn4)[C@H]3O)cc2s1` [Example 222]: 6.62; for `Cc1nc([C@@H]2O[C@H](CO)[C@H](O)[C@H](n3cc(-c4cc(F)c(F)c(F)c4)nn3)[C@H]2O)n(-c2ccc3ncn(C)c3c2)n1` [Example 59]: 6.85; for `COc1cccc(-n2cnnc2[C@@H]2O[C@H](CO)[C@H](O)[C@H](n3cc(-c4cc(F)c(F)c(F)c4)nn3)[C@H]2O)c1` [Example 152]: 6.80. Same read-out and setting: the same measure for `OC[C@H]1O[C@@H](c2nncn2-c2ccc3ncsc3c2)[C@H](O)[C@@H](n2cc(-c3cc(F)c(F)c(F)c3)nn2)[C@H]1O` [Example 120]: 7.52. Still for that read-out and setting: the same measure for `OC[C@H]1O[C@@H](c2ncnn2-c2ccccc2)[C@H](O)[C@@H](n2cc(-c3cc(F)c(F)c(F)c3)nn2)[C@H]1O` [Example 20]: 6.15; for `OC[C@H]1O[C@@H](c2ncnn2-c2cc(F)cc(F)c2)[C@H](O)[C@@H](n2cc(-c3cc(F)c(F)c(F)c3)nn2)[C@H]1O` [Example 37]: 6.68; for `OC[C@H]1O[C@@H](c2nncn2-c2ccc(Br)cc2)[C@H](O)[C@@H](n2cc(-c3cc(F)c(F)c(F)c3)nn2)[C@H]1O` [Example 88]: 6.44. With `OC[C@H]1O[C@@H](c2ncnn2-c2ccc3ncsc3c2)C[C@@H](n2cc(-c3cc(F)c(F)c(F)c3)nn2)[C@H]1O` [Example 181], the pIC50 is 7.40.

On to `CO[C@@H]1[C@@H](n2cc(-c3cc(F)c(F)c(F)c3)nn2)[C@@H](O)[C@@H](CO)O[C@H]1c1ncnn1-c1ccc2ncsc2c1` [Example 192], for which the pIC50 is 7.40. With `Cc1nc2cc(-n3cnnc3[C@@H]3O[C@H](CO)[C@H](O)[C@H](n4cc(-c5cc(F)c(F)c(F)c5)nn4)[C@H]3O)ccc2n1C` [Example 168], the pIC50 is 6.30. Still for that read-out and setting: the same measure for `CS(=O)(=O)c1cccc(-n2cnnc2[C@@H]2O[C@H](CO)[C@H](O)[C@H](n3cc(-c4cc(F)c(F)c(F)c4)nn3)[C@H]2O)c1` [Example 128]: 6.51; for `OC[C@H]1O[C@@H](c2nncn2-c2cccc(-c3nnn[nH]3)c2)[C@H](O)[C@@H](n2cc(-c3cc(F)c(F)c(F)c3)nn2)[C@H]1O` [Example 112]: 6.19. Consider `OC[C@H]1O[C@@H](c2nncn2-c2cccc3cc[nH]c23)[C@H](O)[C@@H](n2cc(-c3cc(F)c(F)c(F)c3)nn2)[C@H]1O` [Example 165], for which the pIC50 was 6.03. Still for that read-out and setting: the same measure for `Cc1nc2ccc(-n3nc(C(C)(C)O)nc3[C@H]3C[C@@H](n4cc(-c5cc(F)c(F)c(F)c5)nn4)[C@@H](O)[C@@H](CO)O3)cc2s1` [Example 270, (2R,3R,4R,6R)-2-(hydroxymethyl)-6-(3-(2-hydroxypropan-2-yl)-1-(2-methylbenzo[d]thiazol-6-yl)-1H-1,2,4-triazol-5-yl)-4-(4-(3,4,5-trifluorophenyl)-1H-1,2,3-triazol-1-yl)tetrahydro-2H-pyran-3-ol]: 6.77. Still for that read-out and setting: the same measure for `O=C(O)c1ccc(-n2ncnc2[C@@H]2O[C@H](CO)[C@H](O)[C@H](n3cc(-c4cc(F)c(F)c(F)c4)nn3)[C@H]2O)cc1` [Example 32]: 6.23.

Regarding `Cc1nc2ccc(-n3ncnc3[C@@H]3O[C@H](CO)[C@H](O)[C@H](n4cc(-c5cc(F)c(Cl)c(Cl)c5)nn4)[C@H]3O)cc2s1` [Example 221, (2R,3R,4R,5R,6S)-4-(4-(3,4-dichloro-5-fluorophenyl)-1H-1,2,3-triazol-1-yl)-2-(hydroxymethyl)-6-(1-(2-methylbenzo[d]thiazol-6-yl)-1H-1,2,4-triazol-5-yl)tetrahydro-2H-pyran-3,5-diol], the pIC50 was 7.30. The same measure, in the same setting: the same measure for `COc1ccc(-c2cn([C@H]3[C@@H](O)[C@@H](CO)O[C@@H](c4ncnn4-c4ccc5nc(C)sc5c4)[C@@H]3O)nn2)cc1F` [Example 223]: 6.70. On the same count and under the same terms, the same measure for `COc1cccc(-c2cnnn2[C@H]2C[C@@H](n3cc(-c4cc(F)c(F)c(F)c4)nn3)[C@@H](O)[C@@H](CO)O2)c1` [Example 16]: 6.22; for `O=C(O)c1cccc(-n2ncnc2[C@@H]2O[C@H](CO)[C@H](O)[C@H](n3cc(-c4cc(F)c(F)c(F)c4)nn3)[C@H]2O)c1` [Example 31]: 5.98; for `Cc1nc2ccc(-n3cnnc3[C@@H]3O[C@H](CO)[C@H](O)[C@H](n4cc(-c5ccc(Br)c(F)c5)nn4)[C@H]3OCC(F)F)cc2s1` [Example 322, (2R,3R,4S,5R,6S)-4-(4-(4-bromo-3-fluorophenyl)-1H-1,2,3-triazol-1-yl)-5-(2,2-difluoroethoxy)-2-(hydroxymethyl)-6-(4-(2-methylbenzo[d]thiazol-6-yl)-4H-1,2,4-triazol-3-yl)tetrahydro-2H-pyran-3-ol]: 7.14.

Staying with this assay, now noted: read-out: hGal3 IC50.
With `Cc1nc2ccc(-n3c([C@@H]4O[C@H](CO)[C@H](O)[C@H](n5cc(-c6ccc(Br)c(F)c6)nn5)[C@H]4O)nnc3C(F)(F)F)cc2s1` [Example 315], the pIC50 is 6.01. The same measure, in the same setting: the same measure for `Cc1nc2ccc(-n3ncnc3[C@@H]3O[C@H](CO)[C@H](O)[C@H](n4cc(-c5cccc(F)c5)nn4)[C@H]3O)cc2s1` [Example 213]: 6.92; for `Cc1nc([C@@H]2O[C@H](CO)[C@H](O)[C@H](n3cc(-c4ccc(Cl)c(F)c4)nn3)[C@H]2O)n(-c2cc(Cl)ccc2F)n1` [Example 249]: 7.05. Same read-out and setting: the same measure for `Cc1nc2ccc(-n3ncnc3[C@@H]3O[C@H](CO)[C@H](O)[C@H](n4cc(-c5ccc(Cl)cc5)nn4)[C@H]3O)cc2s1` [Example 237]: 6.68. Regarding `CC(=O)Nc1cc(-c2cn([C@H]3[C@@H](O)[C@@H](CO)O[C@@H](c4ncnn4-c4ccc5nc(C)sc5c4)[C@@H]3O)nn2)cc(F)c1F` [Example 219], the pIC50 was 7.15.

For `Cc1nc2ccc(-n3ncnc3[C@@H]3O[C@H](CO)[C@H](O)[C@H](n4cc(-c5ccc(Br)c(F)c5)nn4)[C@H]3O)cc2s1` [Example 216], the pIC50 was 7.30. Still for that read-out and setting: the same measure for `OC[C@H]1O[C@@H](c2oncc2-c2cccc(Cl)c2)[C@H](O)[C@@H](n2cc(-c3cc(F)c(F)c(F)c3)nn2)[C@H]1O` [Ex 289]: 5.09; for `Cc1nc2ccc(-n3ncnc3[C@@H]3O[C@H](CO)[C@H](O)[C@H](n4cc(-c5cc(N)c(F)c(F)c5)nn4)[C@H]3O)cc2s1` [Example 218]: 7.70.

The same assay, now with this note: read-out: hGal IC50.
Take `Cc1nc([C@@H]2O[C@H](CO)[C@H](O)[C@H](n3cc(-c4ccc5nccnc5c4)nn3)[C@H]2O)n(-c2cc(Cl)ccc2C(F)(F)F)n1` [Example A66]: the pIC50 is 6.68. For the compound `Cc1nc([C@@H]2O[C@H](CO)[C@H](O)[C@H](n3cc(-c4ccc(Cl)c(F)c4)nn3)[C@H]2O)n(-c2cc(Cl)cc(F)c2Cl)n1` [Example A48], the pIC50 was 7.33.

As to `Cc1nc([C@@H]2O[C@H](CO)[C@H](O)[C@H](n3cc(-c4c(F)cc(Cl)cc4F)nn3)[C@H]2O)n(-c2cc(Cl)ccc2C(F)(F)F)n1` [Example A69], the pIC50 was 7.25. Same read-out and setting: the same measure for `Cc1nc([C@@H]2O[C@H](CO)[C@H](O)[C@H](n3cc(-c4ccc(Br)c(F)c4)nn3)[C@H]2O)n(-c2cc(Cl)ccc2C(F)F)n1` [Example A61]: 7.31.
